Entries after “also recorded” stand apart in the source; their conditions may differ.
Legend:
TNF-α = details: literature refs 14, 15, 16; cited from earlier work
[1] = system: mice exposed to 75% oxygen; experiment: Oxygen-induced vessel loss (vaso-obliteration) at P8 after 24 hours of 75% oxygen; type: in vivo, mouse; details: 10 ng i.p. P5-P8; FIG. 7c
Protocol: (§1) O2-induced retinopathy (vessel degeneration, re-growth and pathological neovascularization). To induce vessel loss, postnatal day 7 (P7) mice with their nursing mother were exposed to 75% oxygen for times ranging from 24 hours to 5 days^1. To evaluate vaso-obliteration following 24 hours of oxygen exposure, P8 mice were anesthetized at with Avertin (Sigma) and perfused with 50 μl of 120 mg/ml FITC-dextran (2×10^6 molecular weight, FD2000S-5G, Sigma) in saline through the left ventricle^21. Eyes were enucleated and fixed in 4% paraformaldehyde for 2 h at 4° C. Retinas were isolated and whole-mounted with SlowFade Antifade reagent (S2828, Molecular Probes) onto polylysin-coated slides with the photoreceptor side up. Retinas were examined with a fluorescence microscope (Olympus, Tokyo), digitized images using a three-charge-coupled device color video camera (DX-950P, Sony), and processed with NORTHERN ECLIPSE software (Empix Imaging, Toronto). Retinal neovascularization was evaluated 5 days after oxygen exposure (P7-P12) at P17 when the neovascular response is greatest. […]
Quantification of vaso-obliteration and retinal neovascularization. […] Vaso-obliteration and neovascular tuft formation were quantified by comparing the number of pixels in the affected areas with the total number of pixels in the retina. […]
Resolvins and Neurorotectins. […] Retinas collected at P17 from omega-6 or omega-3 polyunsaturated fatty acid fed dams and exposed to high oxygen or room air conditions were analyzed to determine lipid mediator profiles. Polyunsaturated fatty acid derived products were extracted, identified, and quantified using a deuterium-labelled internal standard and MS-MS based mediator informatics^23. […] Following retinal staining and whole-mounting, neovascularization and vaso-obliteration were quantified at P17. Vaso-obliteration was also assessed at P8 (after 24 hours of 75% oxygen exposure) in pups given 10 ng of RvD1 (n=7), RvE1 (n=9), NPD1 (n=7), or saline/EtOH vehicle injections (n=6) i.p. from P5-P8. […]

[2] = system: mice with oxygen-induced retinopathy; experiment: Oxygen-induced retinopathy model: vaso-obliteration and retinal neovascularization at P17; type: in vivo, mouse; details: for decrease in vessel loss (VO) compared to vehicle control / decrease in neovascularization (Tufts) compared to vehicle-treated mice: 10 ng i.p. daily P6-P17, read at P17; for decrease in vessel loss (VO) compared to vehicle control / protection from vaso-obliteration compared to saline-injected controls: FIG. 7a; for decrease in neovascularization (Tufts) compared to vehicle-treated mice / neovascularization at P17 compared to saline controls: FIG. 7b; for neovascularization at P17 compared to saline controls / protection from vaso-obliteration compared to saline-injected controls: 10 ng/day i.p. P6-P17
Text: Retinopathy is modeled in the mouse eye with oxygen-induced vessel loss which precipitates hypoxia-induced retinopathy^1. One-week-old C57BL/6J mice are exposed to 75% oxygen for 5 days and then to room air. A fluorescein-dextran perfusion method is used to assess the vascular pattern. The proliferative neovascular response is quantified by counting the nuclei of new vessels extending from the retina into the vitreous in 6 microns sagittal cross-sections. Cross-sections are also stained for glial fibrillary acidic protein (GFAP). Fluorescein-dextran angiography delineates the entire vascular pattern, including neovascular tufts in flat-mounted retinas. Hyperoxia-induced neovascularization occurs at the junction between the vascularized and avascular retina in the mid-periphery. Retinal neovascularization occurs in all the pups between postnatal day 17 and postnatal day 21. This serves as a reproducible and quantifiable mouse model of oxygen-induced retinal neovascularization for the study of pathogenesis of retinal neovascularization as well as for the study of medical intervention for ROP and other retinal angiopathies in humans. This model allows assessment of retinal vessel loss, vessel re-growth after injury and pathological angiogenesis^1.
Litters of mice were subjected to the oxygen induced retinopathy model. Briefly, mice (pups with mothers) on normal chow were placed in 75% oxygen at postnatal day 7, and kept at 75% oxygen for five days. Mice were then returned to room air. During this room air phase (P12-P17) the retina becomes hypoxic due to the vessel regression that occurred while mice were in hyperoxia. Here mice were given either an omega-3 or omega-6 LCPUFA diet. At p12 (once out of oxygen, after vessel loss) or at P15 (a few days later as retinopathy was setting in).
Animals. These studies adhered to the ARVO Statement for the Use of Animals in Ophthalmic and Vision Research. Fat-1 transgenic mice contain a humanized fat-1 cDNA driven by the cytomegalovirus enhancer and a chicken β-actin promoter^9. Fat-1 and control dams were fed a defined diet with elevated omega-6 polyunsaturated fatty acids. For diet studies C57Bl/6 mothers at delivery (unless otherwise indicated for FIG. 12) were fed a defined rodent diet with 10% (w/w) safflower oil containing 2% omega-6 polyunsaturated fatty acids (AA) and no omega-3 polyunsaturated fatty acids or the same defined diet except for 2% omega-3 polyunsaturated fatty acids (DHA and EPA) and no omega-6 polyunsaturated fatty acids (AA). (Table 1) Diets were stable over time and with oxygen exposure (Table 2), unless otherwise indicated.
as §1, with “greatest. P17 mice were given a lethal dose of Avertin (Sigma) and their eyes were enucleated and fixed in 4% paraformaldehyde for 2 h at 4° C.” for “greatest.”

Compound | TNF-α mRNA expression levels in inflammatory models (TNF-α) | oxygen-induced vessel loss at P8 versus saline-injected control [1] | decrease in vessel loss (VO) compared to vehicle control [2] [%] | decrease in neovascularization (Tufts) compared to vehicle-treated mice [2] [%] | neovascularization at P17 compared to saline controls [2] | protection from vaso-obliteration compared to saline-injected controls ([2]; P17) | vaso-obliteration versus fellow saline-injected eye ([2]; intraocular (intravitreous) 12.5 μg at P12, omega-6 fed mice, P17, FIG. 11a) | retinal neovascularization versus fellow saline-injected eye ([2]; intraocular (intravitreous) 12.5 μg at P12, omega-6 fed mice, P17, FIG. 11b) | vaso-obliteration (vessel loss) versus saline injected controls ([2]; intraperitoneal, 500 μg/mouse at P7, P12, P14, P16, omega-6 fed mice, P17, FIG. 10a) | pathologic neovascularization versus saline injected controls ([2]; intraperitoneal, 500 μg/mouse at P7, P12, P14, P16, omega-6 fed mice, P17, FIG. 10b)
CC/C=C\C[C@H](O)\C=C/C=C/C=C/[C@H](O)C/C=C\C/C=C\CCC(=O)O [NPD1, 10R,17S dihydroxy-docosa-4Z,7Z,11E,13E,15Z,19z-hexaneoic acid] | significantly reduce | No apparent differences; also recorded: no protective action | 40 | 30 | less neovascularization | significant protection |  |  |  | 
CC/C=C\C[C@H](O)/C=C/C=C\C=C\C=C\[C@@H](O)[C@@H](O)C/C=C\CCC(=O)O [RvD1, 7S,8R,17S-trihydroxy-docosa-4Z,9E,11E,13Z,15E,19Z-hexaenoic acid] | significantly reduce | No apparent differences | 40 | 30 | less neovascularization | significant protection |  |  |  | 
CC[C@@H](O)/C=C/C=C\C[C@@H](O)/C=C/C=C/C=C\[C@@H](O)CCCC(=O)O [RvE1, 5S,12R,18R-trihydroxy-6Z,8E,10E,14Z,16E-eicosapentaenoic acid] | significantly reduce | No apparent differences; also recorded: no protective action | 40 | 30 | less neovascularization | significant protection |  |  |  | 
etanercept [reference compound] |  |  |  |  |  |  | significantly reduce | suppressed; also recorded: significantly improved | significantly protected; also recorded: significant reduction | significantly protected; also recorded: significant reduction

From patent US20100048705A1, “METHODS OF TREATING AND PREVENTING NEOVASCULARIZATION WITH OMEGA-3 POLYUNSATURATED FATTY ACIDS” (CHILDREN'S MEDICAL CENTER CORPORATION, priority 2006, published 2010)
